Results on 30 molecules are retold here after ChEMBL document CHEMBL3396976, “Design, synthesis and evaluation of isoxazolo[5,4-d]pyrimidin-4(5H)-one derivatives as antithrombotic agents” (Bioorg Med Chem Lett, 2015).

Activity calls are given as the source filed them. The calls are words filed in the database; no cut-off is given here.

The target of test [1] is T1, Coagulation factor X (Homo sapiens, UniProt P00742). As to the kind of experiment: Inhibition of human F10a using chromogenic substrate S-2765 preincubated for 10 mins at 0.1 uM by spectrophotometry.
The species entered for test [2] is Homo sapiens. As to the kind of experiment: Selectivity ratio of IC50 for thrombin (unknown origin) to IC50 for human F10a.
In the next test the target is Prothrombin (Homo sapiens, UniProt P00734). As to the kind of experiment: Inhibition of thrombin (unknown origin) using chromogenic substrate S-2238 by spectrophotometry.
The target in test [3] is T1, Coagulation factor X. Nature of the test: Inhibition of human F10a using chromogenic substrate S-2765 preincubated for 10 mins by spectrophotometry.
In the next test the test system is Plasma. Nature of the test: Anticoagulant activity in human plasma assessed as concentration required to double prothrombin time. The test is classed as functional.
Test [4] is filed under the species Homo sapiens. Nature of the test: Selectivity ratio of IC50 for trypsin (unknown origin) to IC50 for human F10a.

As a reminder, the inhibition is the change of the read-out against control, counted positive when it falls. The term IC50 denotes the concentration at which inhibition is half-maximal. Read a low IC50 as greater potency in that assay.

T1 sequence (P00742 41-179 limits assumed): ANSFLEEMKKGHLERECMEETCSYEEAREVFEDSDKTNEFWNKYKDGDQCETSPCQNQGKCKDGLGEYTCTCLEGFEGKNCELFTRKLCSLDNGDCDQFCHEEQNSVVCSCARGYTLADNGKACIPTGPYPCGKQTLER
T1 sequence (P00742 235-488 limits assumed): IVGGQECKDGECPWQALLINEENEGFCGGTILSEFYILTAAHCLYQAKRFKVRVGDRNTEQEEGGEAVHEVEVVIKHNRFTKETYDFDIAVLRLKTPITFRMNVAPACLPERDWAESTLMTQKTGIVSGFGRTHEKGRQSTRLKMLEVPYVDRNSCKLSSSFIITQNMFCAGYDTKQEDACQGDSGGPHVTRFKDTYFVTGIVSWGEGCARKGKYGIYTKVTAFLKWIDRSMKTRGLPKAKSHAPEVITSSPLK

Take `CCc1nc2onc(-c3ccccc3)c2c(=O)n1-c1ccc(N2CCOCC2=O)cc1`: at Coagulation factor X [1], the inhibition entry was “inactive”.
With `O=C(NC[C@H]1CN(c2ccc(N3CCOCC3=O)cc2)C(=O)O1)c1ccc(Cl)s1`, on Coagulation factor X [1], the inhibition result is “Active”.
In the case of `Cc1nc2onc(-c3ccccc3)c2c(=O)n1-c1ccc(N2CCOCC2=O)cc1`, the inhibition result at Coagulation factor X [1] was “inactive”.
As for `O=C1COCCN1c1ccc(-n2cnc3onc(-c4ccccc4)c3c2=O)cc1`, at Coagulation factor X [1], the inhibition worked out at 27%.
The molecule `O=C1COCCN1c1ccc(-n2cnc3onc(-c4ccc(Cl)cc4)c3c2=O)cc1` displayed an inhibition against Coagulation factor X [1] of 56%.
As for `COc1ccc(-c2noc3ncn(-c4ccc(N5CCOCC5=O)cc4)c(=O)c23)cc1`, the inhibition against Coagulation factor X [1] was determined as 78%.
For `CCc1nc2onc(-c3ccc(Cl)cc3)c2c(=O)n1-c1ccc(N2CCOCC2=O)cc1`, the inhibition result on Coagulation factor X [1] is “inactive”.
For the molecule `Cc1ccc(-c2noc3nc(C)n(-c4ccc(N5CCOCC5=O)cc4)c(=O)c23)cc1`, the inhibition entry at Coagulation factor X [1] is “inactive”.
In turn, `COc1ccc(-c2noc3ncn(-c4ccc(C(=O)N5CCOCC5)cc4)c(=O)c23)cc1` gave an inhibition at Coagulation factor X [1] of 37%.
Still for that read-out and setting: in the case of `Cc1nc2onc(-c3ccc([N+](=O)[O-])cc3)c2c(=O)n1-c1ccc(N2CCOCC2=O)cc1` it was “inactive”; in that of `Cc1ccc(-c2noc3ncn(-c4ccc(N5CCOCC5=O)cc4)c(=O)c23)cc1`, 43%; in that of `CCCNC(=O)c1ccc(-n2cnc3onc(-c4ccc(OC)cc4)c3c2=O)cc1`, 83%.
Take `COc1ccc(-c2noc3nc(C)n(-c4ccc(N5CCOCC5=O)cc4)c(=O)c23)cc1`: the inhibition on Coagulation factor X [1] amounted to 55%.
On Coagulation factor X [1], `COc1ccc(-c2noc3ncn(-c4ccc(N5CCOCC5=O)cc4)c(=O)c23)cc1OC` had an inhibition of 77%.
At Coagulation factor X [1], `CCN(CC)C(=O)c1ccc(-n2cnc3onc(-c4ccc(OC)cc4)c3c2=O)cc1` registered an inhibition of 83%.
Regarding `O=C1COCCN1c1ccc(-n2cnc3onc(-c4ccc([N+](=O)[O-])cc4)c3c2=O)cc1`, on Coagulation factor X [1], the inhibition result is “inactive”.
With `COc1cc(-c2noc3ncn(-c4ccc(N5CCOCC5=O)cc4)c(=O)c23)ccc1OC(C)=O`, the Ratio IC50 in the test listed under Homo sapiens [2] and in the test listed under Homo sapiens [4] was over 1000 in each case. The concentration for half-maximal inhibition (IC50) was over 20 µM against Prothrombin and 13 nM against Coagulation factor X [3]. This molecule also displayed an inhibition on Coagulation factor X [1] of 98%. Also, the 2PT with Plasma is 2.12 µM.
In the case of `COc1ccc(-c2noc3ncn(-c4ccc(C(=O)NC5CCCCC5)cc4)c(=O)c23)cc1`, the inhibition against Coagulation factor X [1] was 72%.
Still for that read-out and setting: in the case of `COc1ccc(-c2noc3ncn(-c4ccc(C(=O)Nc5ccccc5)cc4)c(=O)c23)cc1` it was 81%; in that of `CCc1nc2onc(-c3ccc([N+](=O)[O-])cc3)c2c(=O)n1-c1ccc(N2CCOCC2=O)cc1`, “inactive”.
With `COc1ccc(-c2noc3ncn(-c4ccc(C(=O)N5CCCC5)cc4)c(=O)c23)cc1`, the inhibition against Coagulation factor X [1] was 46%.
Still for that read-out and setting: the result for `CCc1nc2onc(-c3ccc(OC)cc3)c2c(=O)n1-c1ccc(N2CCOCC2=O)cc1` reads 36%.
The molecule `COc1ccc(-c2noc3ncn(-c4ccc(C(=O)N(C)c5ccccc5)cc4)c(=O)c23)cc1` yielded an inhibition at Coagulation factor X [1] of 47%.
In the case of `COc1ccc(-c2noc3nc(C)n(-c4ccc(N5CCOCC5=O)cc4)c(=O)c23)cc1OC`, at Coagulation factor X [1], the inhibition amounted to 47%.
In the case of `CCc1nc2onc(-c3ccc(C)cc3)c2c(=O)n1-c1ccc(N2CCOCC2=O)cc1`, at Coagulation factor X [1], the inhibition entry was “inactive”.
As for `Cc1nc2onc(-c3ccc(Cl)cc3)c2c(=O)n1-c1ccc(N2CCOCC2=O)cc1`, on Coagulation factor X [1], the inhibition was 41%.
On the same count and under the same terms, the result for `COc1ccc(-c2noc3ncn(-c4ccc(C(=O)NC5CCCC5)cc4)c(=O)c23)cc1` reads 75%; that for `CCc1nc2onc(-c3ccc(OC)c(OC)c3)c2c(=O)n1-c1ccc(N2CCOCC2=O)cc1`, 42%.
The same measure, in the same setting: in the case of `COc1ccc(-c2noc3ncn(-c4ccc(C(=O)N5CCCCC5)cc4)c(=O)c23)cc1` it was 54%.
For `COc1ccc(-c2noc3ncn(-c4ccc(C(=O)Nc5ccccn5)cc4)c(=O)c23)cc1`, the Ratio IC50 in the test listed under Homo sapiens [2] and in the test listed under Homo sapiens [4] was over 1000 each time. For the same molecule, the IC50 is over 20 µM on Prothrombin and 18 nM against Coagulation factor X [3]. The molecule further gave an inhibition against Coagulation factor X [1] of 89%. The 2PT with Plasma was found to be 3.37 µM.
